According to patent US20120141601A1, “DIETARY SUPPLEMENT, FEED AND PHARMACEUTICAL COMPOSITION CONTAINING CHIA SEED AND MACA, AND PREPARATION METHOD THEREOF” (priority 2009, published 2012):

Experiments:
Assay type in all cases: in vivo, Sprague-Dawley male rats
[1] = Endurance test, weighted swimming in bath
Description: (§1) Sprague-Dawley male rats (Orientbio) were divided into groups of six which were then administered for 26 days with neither alcohol nor the extracts for the normal group, with alcohol but not with extracts for the control group, with alcohol and 1% by weight octacosanol, with alcohol and 1% by weight chia seeds, with alcohol and 0.5% by weight maca, and with alcohol and a mixture of 1% by weight chia seeds and 0.5% by weight maca, respectively. Typical feedstuff was fed, together with water, to the normal group and, together with 25% alcohol, to the control group while the feedstuff for the other groups contained the test substances as described above.
A swimming experiment was conducted in a transparent acryl bath (with a dimension of length 80 cm×width 50 cm×depth 90 cm) ⅔ filled with water maintained at 24° C. The Sprague-Dawley male rats (Orientbio) were allowed to freely swim with a weight equivalent to 8˜10% of their body weight suspended from the abdomen thereof. Measurements were made of the time it took for the rat to swim to a point at which the head was submerged for 10 sec or longer below the water surface (Hong, S. G., J. Kor. Food Sci. Nutr. 32(7), 1076 (2003)).
To investigate the effects of chia seeds and maca (extract), used as active ingredients in the composition of the present invention, on endurance, measurements of the swing time were analyzed. The swimming time was measured to be 306.33±6.21 sec for the normal group, but 147.16±21.71 sec for the control group, which was equivalent to about 46% of that of the normal group. In contrast, 352.66±34.69 sec was measured for the octacosanol-administered group, 355.66±34.62 sec for the chia seed-administered group, 476.00±45.56 sec for the maca-administered group, and 527.83±25.57 sec for the group co-administered with chia seeds and mace, which were increased by 2.4, 2.4, 3.2 and 3.5 times, compared to the control group. […]

testosterone = experiment: Testosterone level in whole blood; conditions: 25% alcohol daily for 25 days, whole blood from the heart
Description: as §1
(§2) After the rats of the test groups set in Test Example 3 were administered with 25% alcohol every day for 25 days, blood samples were taken from the tail vein and measured for testosterone level using enzyme immunoassay (Roche, USA). The levels of testosterone and high-density lipoproteins in the whole blood taken from the heart were measured in Eone Reference Laboratory.
To investigate the effect of chia seeds and maca (extract), used as active ingredients in the composition of the present invention, on testosterone activity, the levels of testosterone in whole blood were analyzed. […]

[2] = Rotarod performance test for space perception and endurance
Description: as §1
The groups set in Test Example 3 were measured for space perception activity by the rotarod performance test which was conducted for 5 min for each rat with the cylinder (380×260×420 mm) of rotarod LE8300 (LETICA, SPAIN) rotating at a speed of 4 to 40 rpm. Cases in which the rats fell on the ground within 20 sec after starting were excluded from the measurement.
To investigate the effect of chia seeds and maca (extract), used as active ingredients in the composition of the present invention, on space perception and endurance, measurements of the rotarod performance test were analyzed. […] In contrast, the time was 98.16±11.35 sec for octacosanol-administered group, 151.50±5.08 sec for the chia seed-administered group, 215.33±13.14 sec for the maca-administered group and 240.66±39.30 sec for the group co-administered with chia seeds and maca, which were increased by 3, 5, 7, and 8 times, respectively, compared to the control group. As apparent from the data of the rotarod performance test, space perception and endurance were enhanced by octacosanol, chia seeds, maca, and a combination of chia seeds and maca, and most increased, inter alia, by the mixture of chia seeds and maca (FIG. 6, Table 2).

[3] = tested on: high-density lipoproteins; experiment: High-density lipoprotein level in whole blood; conditions: 25% alcohol daily for 25 days, whole blood from the heart
Description: as §1, §2
To investigate the effect of chia seeds and maca (extract), used as active ingredients in the composition of the present invention, on penile function, the levels of high-density lipoproteins were analyzed. […]

alcohol dehydrogenase = experiment: Hepatic alcohol dehydrogenase activity in liver homogenate; conditions: liver homogenate supernatant, absorbance at 340 nm; groups of Test Example 3
Description: as §1
(§3) In order to investigate the effect of the composition of the present invention on alcoholysis enzymes, the rats of the test groups set in Test Example 3 were anesthetized with chloroform and subjected to ventrotomy to excise the liver. The liver tissue was homogenized in 10 volumes of 100 mM sodium phosphate buffer, pH 7.4, using a homogenizer and then disrupted with an ultrasonicator. Centrifugation at 700 G for […] removed nuclei and cell debris. After centrifugation at 9,000 G for 20 min, the supernatant was measured for hepatic alcohol dehydrogenase and aldehyde dehydrogenase activity. The protein concentration of the supernatant was determined using a BCA kit and used to normalize the amount of liver tissue between test groups. […]

[4] = Blood alcohol concentration
Description: as §1
Blood alcohol concentrations were measured after the rats were administered 25% alcohol every day for 30 days. In this regard, blood samples were taken from the tail vein of the rats of the test groups set in Test Example 3 at 6 P.M. every five days, and blood alcohol concentrations were determined using an alcohol tester (Asia Commerce Co. Ltd., Model No. LION SD-400).
To investigate the effect of chia seeds and maca (extract), used as active ingredients in the composition of the present invention, on the degradation of blood alcohol, measurements of the blood alcohol concentration were analyzed. The blood alcohol concentration was 0% for the normal group and 0.06% for the control group. […]

aldehyde dehydrogenase = experiment: Hepatic aldehyde dehydrogenase activity in liver homogenate; conditions: liver homogenate supernatant, absorbance at 340 nm; groups of Test Example 3
Description: as §1, §3

[5] = Locomotor activity, open field test
Description: as §1
The locomotor activities of the groups set in Test Example 3 were measured in an open field test chamber (38.0 cm×26.0 cm×42.0 cm; LETICA, SPAIN). Horizontal activity was recorded by an IR detector for 10 min To investigate the effects that chia seeds and maca (extract), used as active ingredients in the composition of the present invention, had on locomotor activity, measurements of the horizontal activity were analyzed. The horizontal activity was 1179.2±21.2 cm for the normal group, but […] for the control group, which was decreased by about 75% compared to the normal. […]

Which swimming time ([1]; 26 days, alcohol plus 1% octacosanol, 1% chia seeds, 0.5% maca or 1% chia seeds + 0.5% maca in feed, weight 8-10% of body weight) does the source give for `CCCCCCCCCCCCCCCCCCCCCCCCCCCCO` [octacosanol] here?
Its swimming time is 352.66 ± 34.69 s.

What about the “swimming time” value ([1]; Table 1, endurance test with swimming in bath) of the same compound?
Its value is 352.66 ± 34.69 s.

What about the “increase of swimming time compared to the control group” value ([1]; vs alcohol control group) of the same compound?
Its value is 2.4 times.

And the “level of testosterone in whole blood” value (testosterone)?
The value was 195 ± 62.2 ng/dL.

And the time on rotarod ([2]; Table 2, rotarod performance test)?
The time on rotarod was 98.16 ± 11.35 s.

And the “time that the rats stayed on the rotating cylinder” value ([2]; rotarod 4 to 40 rpm, 5 min, groups of Test Example 3)?
The value was 98.16 ± 11.35 s.

And the “increase of time on rotating cylinder compared to the control group” value ([2]; vs alcohol control group)?
Its value is 3 times.

And the “level of high-density lipoproteins” value [3]?
Its value is 32.5 ± 1.5 mg/dL.

And the alcohol dehydrogenase activity (alcohol dehydrogenase)?
Its alcohol dehydrogenase activity is 8.9±0.8 mmole/min/mg protein.

And the blood alcohol concentration ([4]; 25% alcohol daily for 30 days, tail vein blood, groups of Test Example 3)?
The blood alcohol concentration was 0.034%.

And the “decrease of blood alcohol concentration compared to the control group” value ([4]; vs alcohol control group)?
The value was 55%.

What about the aldehyde dehydrogenase activity (aldehyde dehydrogenase) of the same compound?
Its aldehyde dehydrogenase activity is 9.8±1.4 mmole/min/mg protein.

What about the horizontal activity ([5]; open field, IR detector, 10 min, groups of Test Example 3) of the same compound?
The horizontal activity was 240.2±12.3 cm.

And the “increase of horizontal activity compared to the control group” value ([5]; vs alcohol control group)?
Its value is 8 times.
